From patent publication US20100016379A1, “Terephthalamate Compounds and Compositions, and Their Use as HIV Integrase Inhibitors” (IRM LLC, priority 2006, published 2010)
Like-named read-outs stand apart in the source and are kept apart here.

Assays:
HIV-1 integrase = biological target: T1, HIV-1 integrase (Human immunodeficiency virus type 1 group M subtype B, UniProt P04585); test: HIV-1 integrase strand transfer assay (Screen 2); format: biochemical
T1 construct: An HIV-1 integrase strand transfer assay
From the text: Screen 2: An HIV-1 integrase strand transfer assay, (see Wang et al, J. Biomol. Screen. (2005) 10: 456), that identifies anti-HIV activity due to inhibition of HIV integrase.

HIV = test: cell-based HIV luciferase reporter infection assay (Screen 1); settings: for EC50: Human immunodeficiency virus 1, read-out: HIV Activity EC50
Experimental: HIV therapeutic agents inhibit propagation of HIV in cells, and as such cell-based assays of HIV antiviral activity have been developed. For example, Pauwels et al, Nature (1990) 343: 470-4 describe incubating HIV infected cells with test compounds and subsequently determining cell viability via colorimetric methods, to give an EC50 for the inhibition of HIV-1 replication.
Screen 1: A high throughput cell-based HIV luciferase reporter infection assay (see He et al, Bioorg. Med. Chem. Lett. (2006) 16) that identifies inhibitors of early HIV infection events. The results are shown in Table 2 below, expressed as EC50 (μM), the molar concentration that produces 50% of the maximal possible response.

[1] = cytotoxicity assay (Screen 3); format: cell-based; settings: human, HE 293T cells
From the text: Screen 3: A cytotoxicity assay, to determine inhibitory activity against HE 293T cells.

[2] = system: NNRTI resistant mutant K103N; test: Inhibition of NNRTI resistant mutants, K103N; format: cell-based, HIV; settings: Human immunodeficiency virus 1, read-out: Inhibition of NNRTI resistant mutants (EC50) K103N
Experimental: (§1) Select compounds are assayed against key NNRTI resistant mutants.

[3] = system: NNRTI resistant mutant Y188L; test: Inhibition of NNRTI resistant mutants, Y188L; format: cell-based, HIV; settings: Human immunodeficiency virus 1, read-out: Inhibition of NNRTI resistant mutants (EC50) Y188L
Experimental: as §1

WT = test: Inhibition of NNRTI resistant mutants, WT; format: cell-based, HIV; settings: Human immunodeficiency virus 1, read-out: Inhibition of NNRTI resistant mutants (EC50) WT
Experimental: as §1

[4] = system: NNRTI resistant mutant L100I; test: Inhibition of NNRTI resistant mutants, L100I; format: cell-based, HIV; settings: Human immunodeficiency virus 1, read-out: Inhibition of NNRTI resistant mutants (EC50) L100I
Experimental: as §1

[5] = system: NNRTI resistant mutant Y181C; test: Inhibition of NNRTI resistant mutants, Y181C; format: cell-based, HIV; settings: Human immunodeficiency virus 1, read-out: Inhibition of NNRTI resistant mutants (EC50) Y181C
Experimental: as §1

[6] = strand transfer assay, read-out: Integrase Activity IC50

SMILES	IC50 (HIV-1 integrase)	EC50 (HIV)	CC50 [1]	IC50 (HIV-1 integrase; [6])	EC50 [2]	EC50 [3]	EC50 (WT)	EC50 [4]	EC50 [5]	activity in the enzymatic assay (HIV-1 integrase; result in words)	activity in the cellular assay (HIV; result in words)
COC(=O)c1ccc(C(=O)NCc2ccccc2)c(O)c1O [Compound 1, methyl 4-(benzylcarbamoyl)-2,3-dihydroxybenzoate]	50 to 500 nM	50 to 500 nM	> 2000 nM	–	–	–	–	–	–	–	–
O=C(NCc1ccccc1)c1cccc(O)c1O [Compound 2, N-benzyl-2,3-dihydroxybenzamide]	–	> 2000 nM	> 2000 nM	–	–	–	–	–	–	–	–
O=C(NCc1ccccc1)c1cccc(O)c1 [Compound 3, N-benzyl-3-hydroxybenzamide]	–	> 2000 nM	> 2000 nM	–	–	–	–	–	–	–	–
O=C(NCc1ccccc1)c1ccccc1O [Compound 4, N-benzyl-2-hydroxybenzamide]	–	> 2000 nM	> 2000 nM	–	–	–	–	–	–	–	–
O=C(NCc1ccccc1)c1cccc(O)n1 [Compound 5, N-benzyl-6-hydroxypyridine-2-carboxamide]	–	> 2000 nM	> 2000 nM	–	–	–	–	–	–	–	–
O=C(NCc1ccccc1)c1cccnc1O [Compound 6, N-benzyl-2-hydroxypyridine-3-carboxamide]	–	> 2000 nM	> 2000 nM	–	–	–	–	–	–	–	–
COC(=O)c1ccc(C(=O)NCc2ccccc2OC)c(O)c1O [Compound 7, methyl 4-(2-methoxybenzylcarbamoyl)-2,3-dihydroxybenzoate]	–	< 50 nM	500 to 2000 nM	< 50 nM	< 50 nM	50 to 500 nM	< 50 nM	< 50 nM	50 to 500 nM	–	–
COC(=O)c1ccc(C(=O)NCc2cccc(OC)c2)c(O)c1O [Compound 8, methyl 4-(3-methoxybenzylcarbamoyl)-2,3-dihydroxybenzoate]	–	50 to 500 nM	> 2000 nM	< 50 nM	50 to 500 nM	50 to 500 nM	50 to 500 nM	50 to 500 nM	50 to 500 nM	–	–
COC(=O)c1ccc(C(=O)NCc2ccc(OC)cc2)c(O)c1O [Compound 9, methyl 4-(4-methoxybenzylcarbamoyl)-2,3-dihydroxybenzoate]	–	500 to 2000 nM	> 2000 nM	< 50 nM	–	–	–	–	–	–	–
COC(=O)c1ccc(C(=O)NCc2ccccc2[N+](=O)[O-])c(O)c1O [Compound 10, methyl 4-(2-nitrobenzylcarbamoyl)-2,3-dihydroxybenzoate]	–	50 to 500 nM	500 to 2000 nM	< 50 nM	< 50 nM	50 to 500 nM	50 to 500 nM	< 50 nM	50 to 500 nM	–	–
COC(=O)c1ccc(C(=O)NCc2cccc([N+](=O)[O-])c2)c(O)c1O [Compound 11, methyl 4-(3-nitrobenzylcarbamoyl)-2,3-dihydroxybenzoate]	–	< 50 nM	500 to 2000 nM	< 50 nM	< 50 nM	< 50 nM	< 50 nM	< 50 nM	50 to 500 nM	–	–
COC(=O)c1ccc(C(=O)NCc2ccc([N+](=O)[O-])cc2)c(O)c1O [Compound 12, methyl 4-(4-nitrobenzylcarbamoyl)-2,3-dihydroxybenzoate]	–	50 to 500 nM	500 to 2000 nM	50 to 500 nM	–	–	–	–	–	–	–
COC(=O)c1ccc(C(=O)NCc2ccccc2C(F)(F)F)c(O)c1O [Compound 13, methyl 4-(2-(trifluoromethyl)benzylcarbamoyl)-2,3-dihydroxybenzoate]	–	50 to 500 nM	500 to 2000 nM	50 to 500 nM	–	–	–	–	–	–	–
COC(=O)c1ccc(C(=O)NCc2cccc(C(F)(F)F)c2)c(O)c1O [Compound 14, methyl 4-(3-(trifluoromethyl)benzylcarbamoyl)-2,3-dihydroxybenzoate]	–	500 to 2000 nM	500 to 2000 nM	50 to 500 nM	–	–	–	–	–	–	–
COC(=O)c1ccc(C(=O)NCc2ccc(C(F)(F)F)cc2)c(O)c1O [Compound 15, methyl 4-(4-(trifluoromethyl)benzylcarbamoyl)-2,3-dihydroxybenzoate]	–	500 to 2000 nM	500 to 2000 nM	500 to 2000 nM	–	–	–	–	–	–	–
COC(=O)c1ccc(C(=O)NCc2ccccn2)c(O)c1O [Compound 16, methyl 4-((pyridin-2-yl)methylcarbamoyl)-2,3-dihydroxybenzoate]	–	50 to 500 nM	> 2000 nM	50 to 500 nM	50 to 500 nM	50 to 500 nM	50 to 500 nM	50 to 500 nM	50 to 500 nM	–	–
COC(=O)c1ccc(C(=O)NCc2cccnc2)c(O)c1O [Compound 17, methyl 4-((pyridin-3-yl)methylcarbamoyl)-2,3-dihydroxybenzoate]	–	50 to 500 nM	> 2000 nM	50 to 500 nM	–	–	–	–	–	–	–
COC(=O)c1ccc(C(=O)NCc2ccncc2)c(O)c1O [Compound 18, methyl 4-((pyridin-4-yl)methylcarbamoyl)-2,3-dihydroxybenzoate]	–	50 to 500 nM	> 2000 nM	50 to 500 nM	–	–	–	–	–	–	–
COC(=O)c1ccc(C(=O)N(C)Cc2ccccc2)c(O)c1O [Compound 19, methyl 4-(N-benzyl-N-methylcarbamoyl)-2,3-dihydroxybenzoate]	–	> 2000 nM	> 2000 nM	> 2000 nM	–	–	–	–	–	–	–
COC(=O)c1ccc(C(=O)Nc2ccccc2)c(O)c1O [Compound 20, methyl 4-(phenylcarbamoyl)-2,3-dihydroxybenzoate]	–	< 50 nM	500 to 2000 nM	< 50 nM	< 50 nM	< 50 nM	< 50 nM	< 50 nM	< 50 nM	–	–
COC(=O)c1ccc2c(=O)n(Cc3ccccc3)c(=O)oc2c1O [Compound 21, 3-benzyl-8-hydroxy-2,4-dioxo-3,4-dihydro-2H-benzo[e][1,3]oxazine-7-carboxylic acid methyl ester]	50 to 500 nM	50 to 500 nM	> 2000 nM	–	50 to 500 nM	50 to 500 nM	50 to 500 nM	50 to 500 nM	50 to 500 nM	maintains activity	maintains activity
CC(C)Oc1ccc(Cc2ccccc2)cc1C(=O)CC(=O)C(=O)O [DKA, reference compound]	–	50 to 500 nM	> 2000 nM	50 to 500 nM	< 50 nM	50 to 500 nM	50 to 500 nM	50 to 500 nM	50 to 500 nM	–	–
Cc1ccnc2c1NC(=O)c1cccnc1N2C1CC1 [NVP, Nevirapine, reference compound]	–	50 to 500 nM	> 2000 nM	–	> 2000 nM	> 2000 nM	50 to 500 nM	50 to 500 nM	> 2000 nM	–	–
